From PubChem BioAssay (NCI)
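Exposure lasted 48 hours, with cells grown in 96-well plates and compounds tested at five concentrations. At the TGI there is no net growth.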

Tests used:
Assay in all cases: inhibition of tumour cell growth, NCI panel, 48 h
MALME-3M melanoma = system: MALME-3M melanoma
NCI-H460 lung = system: NCI-H460 lung
SF-268 CNS = system: SF-268 CNS
UO-31 renal = system: UO-31 renal
LOX IMVI melanoma = system: LOX IMVI melanoma
HOP-62 NSCLC = system: HOP-62 NSCLC
EKVX NSCLC = system: EKVX NSCLC
MCF7 breast = system: MCF7 breast
SNB-19 CNS = system: SNB-19 CNS
SK-MEL-28 melanoma = system: SK-MEL-28 melanoma
SW-620 colon = system: SW-620 colon
CAKI-1 renal = system: CAKI-1 renal
NCI/ADR-RES ovarian = system: NCI/ADR-RES ovarian
NCI-H23 lung = system: NCI-H23 lung
HCT-15 colon = system: HCT-15 colon
SN12C renal = system: SN12C renal
MDA-MB-435 = system: MDA-MB-435
TK-10 renal = system: TK-10 renal
UACC-62 melanoma = system: UACC-62 melanoma
DU-145 prostate = system: DU-145 prostate

Structure (SMILES) | TGI (MALME-3M melanoma) | TGI (NCI-H460 lung) | TGI (SF-268 CNS) | TGI (UO-31 renal) | TGI (LOX IMVI melanoma) | TGI (HOP-62 NSCLC) | TGI (EKVX NSCLC) | TGI (MCF7 breast) | TGI (SNB-19 CNS) | TGI (SK-MEL-28 melanoma) | TGI (SW-620 colon) | TGI (CAKI-1 renal) | TGI (NCI/ADR-RES ovarian) | TGI (NCI-H23 lung) | TGI (HCT-15 colon) | TGI (SN12C renal) | TGI (MDA-MB-435) | TGI (TK-10 renal) | TGI (UACC-62 melanoma) | TGI (DU-145 prostate)
Cc1cc(C)nc(NS(=O)(=O)c2ccc(Nc3c4ccccc4nc4c(C(=O)NCCCN(CCO)CCO)cccc34)cc2)n1 | 33.6 µM | 44 µM | > 100 µM | > 100 µM | 46.1 µM | 73.5 µM | > 100 µM | > 100 µM | > 100 µM | 31.2 µM | 33.6 µM | > 100 µM | > 100 µM | > 100 µM | > 100 µM | > 100 µM | 40.6 µM | > 100 µM | 60.4 µM | > 100 µM
CC1(C23CC4CC(CC(C4)C2)C3)n2c(=O)n(-c3ccccc3)c(=O)n2C1(C)C12CC3CC(CC(C3)C1)C2 (stereo unspecified) | – | > 100 µM | > 100 µM | > 100 µM | – | > 100 µM | > 100 µM | > 100 µM | > 100 µM | > 100 µM | > 100 µM | > 100 µM | > 100 µM | > 100 µM | > 100 µM | > 100 µM | > 100 µM | > 100 µM | > 100 µM | > 100 µM
Cc1[nH]c(=O)nc(N/N=C/c2ccc(Cl)cc2)c1C(=O)NC(C)(CO)CO | > 100 µM | > 100 µM | > 100 µM | > 100 µM | > 100 µM | > 100 µM | > 100 µM | > 100 µM | > 100 µM | > 100 µM | > 100 µM | > 100 µM | > 100 µM | > 100 µM | > 100 µM | > 100 µM | > 100 µM | > 100 µM | > 100 µM | > 100 µM
CCOC(=O)c1csc(NC(=O)CCN2CCCCC2)n1 | > 100 µM | > 100 µM | – | > 100 µM | > 100 µM | > 100 µM | > 100 µM | > 100 µM | > 100 µM | > 100 µM | > 100 µM | > 100 µM | > 100 µM | > 100 µM | > 100 µM | – | > 100 µM | > 100 µM | > 100 µM | > 100 µM
CCC1=CC2CN3CCc4c([nH]c5ccccc45)C(C(=O)OC)(C2)C13 (stereo unspecified) | 92.8 µM | 102 µM | 101 µM | 71.4 µM | 121 µM | 86.1 µM | 78.2 µM | 95.4 µM | 68.4 µM | 98.4 µM | 82.7 µM | 46.5 µM | 110 µM | 100 µM | 90.8 µM | 89.3 µM | – | – | 64 µM | –
CON(C)C(C#N)=C(C#N)C#N | > 10 µM | > 10 µM | > 10 µM | > 10 µM | > 10 µM | > 10 µM | > 10 µM | > 10 µM | > 10 µM | > 10 µM | > 10 µM | > 10 µM | > 10 µM | > 10 µM | > 10 µM | > 10 µM | > 10 µM | > 10 µM | > 10 µM | > 10 µM
CN1C2CC(=O)CC1[C@H](O)[C@@H]2O | > 100 µM | > 100 µM | > 100 µM | > 100 µM | > 100 µM | > 100 µM | > 100 µM | > 100 µM | > 100 µM | > 100 µM | > 100 µM | – | > 100 µM | > 100 µM | > 100 µM | > 100 µM | > 100 µM | > 100 µM | – | > 100 µM
